Laboratory results: patent US10059741B2 (priority 2015, dated 2018)
Values joined by “and” are separate entries in the source; they are usually repeats but may differ in a detail not shown here. Equal entries are not always repeated. Where two headings read alike, the source gives them in different places. Bridge positions count the residues as written; N and C are the ends. Square brackets hold non-standard residues; d marks the D form. Peptide text beside a SMILES is read from it. S5 = C=CCCC[C@](C)(N)C(=O)O; Nle = CCCC[C@H](N)C(=O)O; Aib = CC(C)(N)C(=O)O

Legend:
[1] = system: Influenza A H3N2 Influenza A/Brisbane/10/2007; experiment: microbe, parasite or virus in culture; assay type: cell-based, influenza A virus
[2] = system: Madin Darby canine kidney (MDCK) cells
in vitro = conditions: dog
H3N2 Perth/16/2009 [3] = experiment: microbe, parasite or virus in culture; assay type: cell-based, influenza A virus
H7N9 A/Anhui/1/2013 = experiment: microbe, parasite or virus in culture; assay type: cell-based, influenza A virus
H5N1 A/Duck/MN/1525/81 = experiment: microbe, parasite or virus in culture; assay type: cell-based, influenza A virus
[4] = system: Influenza B/Brisbane/60/2008; experiment: microbe, parasite or virus in culture; assay type: cell-based
H1N1 California/07/2009 [5] = experiment: microbe, parasite or virus in culture; assay type: cell-based, influenza A virus
[6] = system: Influenza A H1N1 Influenza A/California/7/2009; experiment: microbe, parasite or virus in culture; assay type: cell-based, influenza A virus
[7] = system: Influenza B Brisbane/60/2008; experiment: Cytopathic effect (CPE) inhibition in MDCK cells, neutral red; assay type: cell-based; conditions: read-out: EC50
H3N2 Perth/16/2009 [8] = experiment: microbe, parasite or virus in culture; assay type: cell-based, influenza A virus; conditions: Influenza A virus, H3N2, MDCK, read-out: EC50 (μM) H3N2 Perth/16/2009
[9] = system: influenza virus, various viral strains; experiment: organism not typed; assay type: cell-based
[10] = system: influenza virus, various viral strains; experiment: Influenza antiviral evaluation assay (CPE, neutral red dye uptake) in MDCK cells against various viral strains (Tables 8, 9); assay type: cell-based
H1N1 A/Brisbane/59/2007 = experiment: Cytopathic effect (CPE) inhibition in MDCK cells, neutral red; assay type: cell-based, influenza A virus
H1N1 California/07/2009 [11] = experiment: microbe, parasite or virus in culture; assay type: cell-based, influenza A virus; remark: listed apart in the source
[12] = system: H5N1 A/Hong Kong/213/2003; experiment: microbe, parasite or virus in culture; assay type: cell-based, influenza A virus
[13] = system: Influenza A H1N1 Influenza A/Texas/4/2009; experiment: microbe, parasite or virus in culture; assay type: cell-based, influenza A virus
[14] = system: Influenza B Florida/04/2006; experiment: Cytopathic effect (CPE) inhibition in MDCK cells, neutral red; assay type: cell-based; conditions: read-out: EC50
[15] = system: influenza virus, various viral strains; assay type: cell-based
[16] = Plasma PK in a cyno monkey, single subcutaneous dose
[17] = system: H1N1 A/Solomon Island/03/2006; assay type: cell-based, influenza A virus; conditions: read-out: EC50
[18] = Influenza B virus, MDCK, Influenza B Influenza B/Brisbane/60/2008, CellTiter-Glo
[19] = Influenza A virus, H1N1, MDCK, read-out: EC50 (μM) H1N1 California/07/2009
[20] = MDCK, Influenza A H5N1 Duck/MN/1525/81, Visual
[21] = cynomolgus monkey, sc, 2.25 mg/kg

NC(=O)c1ncn([C@@H]2O[C@H](CO)[C@@H](O)[C@H]2O)n1 [Ribavirin, reference compound]
EC50 ([1]; Influenza A virus, H3N2, MDCK): 2.81 µM
EC90 ([1]; Influenza A virus, H3N2, MDCK): 11.8 µM
CC50 ([2]; MDCK cells, run with Influenza A H5N1 Duck/MN/1525/81, Neutral Red): > 320 µM
CC50 ([2]; MDCK cells, run with Influenza A H5N1 Duck/MN/1525/81, Visual): > 320 µM
CC50 ([2]; MDCK cells, run with Influenza A H5N1 Hong Kong/213/2003, Neutral Red): > 1000 µM
CC50 ([2]; MDCK cells, run with Influenza A H5N1 Hong Kong/213/2003, Visual): > 1000 µM
CC50 ([2]; run with Influenza A H5N1 A/Hong Kong/213/2003, Neutral Red): > 1000 µM
CC50 ([2]; run with Influenza A H5N1 A/Hong Kong/213/2003, Visual): > 1000 µM
CC50 ([2]; run with Influenza A H7N9 A/Anhui/1/2013, Neutral Red): > 1000 µM
CC50 ([2]; run with Influenza A H7N9 A/Anhui/1/2013, Visual): > 1000 µM
CC50 (in vitro; CC50 (μM) H1N1 California/07/2009): > 100 µM
CC50 (in vitro; CC50 (μM) H3N2 Perth/16/2009): > 100 µM
EC50 (H3N2 Perth/16/2009 [3]; Influenza A virus, H3N2, MDCK, read-out: EC50 (μM) H3N2 Perth/16/2009): 1.5 to 10 µM
EC50 (H7N9 A/Anhui/1/2013; Influenza A virus, H7N9, MDCK, Influenza A H7H9 A/Anhui/1/2013, Neutral Red): 18 µM
EC50 (H7N9 A/Anhui/1/2013; Influenza A virus, H7N9, MDCK, Influenza A H7N9 A/Anhui/1/2013, Drug Assay Neutral Red): 3 µM
EC50 (H5N1 A/Duck/MN/1525/81; Influenza A H5N1 Duck/MN/1525/81, Neutral Red): 5.6 µM
EC50 (H5N1 A/Duck/MN/1525/81; Influenza A virus, H5N1, MDCK, Influenza A H5N1 Duck/MN/1525/81, Neutral Red): 9.6 µM
EC50 [4, 18]: 66.2 µM
EC90 [4, 18]: > 100 µM
EC90 (H1N1 California/07/2009 [5]; Influenza A virus, H1N1, MDCK): 5.5 µM
EC50 (H1N1 California/07/2009 [5]; [19]): 1.5 to 10 µM
EC50 ([6]; Influenza A virus, H1N1, MDCK): 6.53 µM
EC90 ([6]; Influenza A virus, H1N1, MDCK): 16.2 µM
EC50 ([7]; Influenza B virus, MDCK, Influenza B Brisbane/60/2008, Neutral Red): 5.6 µM
EC50 (H3N2 Perth/16/2009 [8]): 10 to 25 µM
EC90 [9]: 4.1 µM
EC90 ([9]; MDCK): 5.2 µM
EC50 ([9]; MDCK, Influenza A H1N1 A/Solomon Is./3/2006-M, Drug Assay Visual): 10 µM
EC50 ([9]; MDCK, Influenza A H1N1 California/04/2009-M, Visual): 10 µM
EC50 ([9]; MDCK, Influenza A H1N1 Solomon Is./3/2006-M, Visual): 10 µM
EC50 ([9]; MDCK, Influenza A H3N2 Victoria/3/75-M, Visual): 10 µM
EC50 ([9]; MDCK, Influenza A H5N1 A/Hong Kong/213/2003, Drug Assay Visual): 4.2 µM
EC50 [9, 20]: 10 µM
EC90 [9, 20]: 9 µM
EC50 ([9]; MDCK, Influenza A H5N1 Hong Kong/213/2003, Visual): 43 µM
EC50 ([9]; MDCK, Influenza A H7N9 A/Anhui/1/2013, Drug Assay Visual): 3.2 µM
EC50 ([9]; MDCK, Influenza B Sichuan/379/99-M, Visual): 10 µM
EC50 [10]: 9.3 µM and 9.6 µM and 8.9 µM
EC50 ([10]; MDCK): 9.8 µM
EC50 (H1N1 A/Brisbane/59/2007): 5.6 µM
EC50 (H1N1 A/Brisbane/59/2007; Influenza A virus, H1N1, MDCK): 7.2 µM
EC50 (H1N1 California/07/2009 [11]): 8.5 µM and 6.8 µM and 10 µM
EC50 (H1N1 California/07/2009 [11]; [19]): 10 to 25 µM
EC50 ([12]; Influenza A virus, H5N1, MDCK, Influenza A H5N1 A/Hong Kong/213/2003, Drug Assay Neutral Red): 3.6 µM
EC50 ([12]; Influenza A virus, H5N1, MDCK, Influenza A H5N1 Hong Kong/213/2003, Neutral Red): 39 µM
EC50 ([13]; Influenza A virus, H1N1, MDCK): 14.6 µM
EC90 ([13]; Influenza A virus, H1N1, MDCK): > 100 µM
EC50 ([14]; Influenza B virus, MDCK, Influenza B Florida/04/2006, Neutral Red): 4.8 µM

CCCC[C@H](NC(C)=O)C(=O)N[C@@H](CC(=O)O)C(=O)N[C@H](C(=O)N[C@@H](CC(N)=O)C(=O)N[C@@]1(C)CCCC=CCCC[C@@](C)(C(=O)N[C@@H](CC(C)C)C(=O)N[C@@H](CCCCN)C(=O)N[C@H](C(=O)NC(C)(C)C(=O)N[C@@H](C)C(=O)N[C@@H](CCC(N)=O)C(N)=O)C(C)C)NC(=O)[C@H](CC(C)C)NC(=O)[C@H](CC(C)C)NC(=O)[C@H]([C@@H](C)O)NC1=O)C(C)C [AP1, Ac-NleDVN$TLL$LKVAibAQ-NH2] (Ac-[Nle]DVN[S5]TLL[S5]LKV[Aib]AQ-NH2; staple 5-9)
EC50 ([1]; read-out: EC50): > 100 µM
EC90 ([1]; read-out: EC90): > 100 µM
CC50 (in vitro; CC50): > 100 µM
EC90 (H3N2 Perth/16/2009 [3]): 28 µM
EC50 (H3N2 Perth/16/2009 [3]; read-out: EC50): 12 µM
EC50 (H7N9 A/Anhui/1/2013; read-out: EC50): > 100 µM
EC50 (H5N1 A/Duck/MN/1525/81; read-out: EC50): 6.3 µM and 6.4 µM
EC50 [4]: > 100 µM
EC90 [4]: > 100 µM
EC50 (H1N1 California/07/2009 [5]; read-out: EC50): 28 µM
EC90 (H1N1 California/07/2009 [5]; read-out: EC90): > 65 µM
EC50 ([6]; read-out: EC50): > 100 µM
EC90 ([6]; read-out: EC90): > 100 µM
EC50 [7]: 6.9 µM
EC90 [15]: > 100 µM
time at which drug levels were measureable (last time point assessed) ([16]; cyno monkey, single subcutaneous dose 2.25 mg/kg): 96 h
MRT [16, 21]: 21 h
half-life [16, 21]: 13 h
EC50 [17]: 3 µM and 1.8 µM
EC50 ([12]; read-out: EC50): > 100 µM
EC50 ([13]; read-out: EC50): > 100 µM
EC90 ([13]; read-out: EC90): > 100 µM
EC50 [14]: 11 µM
